According to EP3838286B1, “ANTIMICROBIAL PEPTIDE FROM POLISTES GALLICUS VENOM AND ITS ANALOGS” (Latoxan, priority 2019, dated 2021):
Converted amounts (≈) assume the structure as drawn. Where two headings read alike, the source gives them in different places. Square brackets hold non-standard residues; d marks the D form. Ends that are not written are not given here. Peptide text beside a SMILES is read from it.

Columns and labels:
M. smegmatis = settings: 72 h
[1] = Cytotoxicity assay (resazurin); assay type: cell-based; settings: human
Protocol: Normal human cells used were BEAS-2B (ATCC CRL-9609), IMR-90 (ATCC CCL-186) and Human Umbilical Vein Endothelial Cells (HUVEC) (from Sigma-Aldrich) corresponding respectively to human normal lung epithelial, normal lung fibroblast cells and human normal endothelial cells. All cells except HUVEC cells were cultured in Dulbecco's modified essential medium (DMEM) supplemented with 10% fetal calf serum (FCS), 1% L-glutamine and 1% antibiotics (all from Invitrogen). HUVEC cells were cultured in specific endothelial media (from Sigma Aldrich). Cells were seeded onto […] maintained in a 5% CO2 incubator at 37 °C. Cells grown on 25 cm^2 flasks were detached using trypsin-EDTA solution (from Thermofisher), counted using Mallassez counting chamber and seeded into 96-well cell culture plates (Greiner bio-one) at approximately 10,000 cells per well. The cells were left to grow for 48-72 h at 37 °C in a 5% CO2 incubator until they reached confluence. Plates were then aspirated and increasing concentrations of peptides diluted in culture media were added to the cells for 48 h at 37 °C in a 5% CO2 incubator. At the end of the incubation, wells were emptied and cell viability was evaluated using Resazurin based in vitro toxicity assay kit (from Sigma-Aldrich) following manufacturer's instructions. Briefly, Resazurin stock solution was diluted 1:10 in sterile PBS containing calcium and magnesium (PBS, pH 7.4) and empty wells were filled with 100 µL of the diluted solution. After 4 h incubation at 37 °C, fluorescence intensity was measured using microplate reader (Synergy Mx, Biotek) with an excitation wavelength of 530 nm and an emission wavelength of 590 nm. The fluorescence values were normalized by the controls (buffer treated cells) and expressed as percent viability. The IC50 values of peptides on cell viability (i.e. the concentration of derivative causing a reduction of 50% of cell viability) were determined using GraphPad® Prism 7 software. t-Test and two way ANOVA analyses were used to address the significant differences between mean values with significance set at p < 0.05.

[2] = system: B. subtilis (Nisin-resistant)
human erythrocytes = assay: Hemolytic activity assay; assay type: cell-based
Protocol: The hemolytic activity of each peptide was determined by the leakage of hemoglobin from human erythrocytes (obtained from Divbioscience, NL) as previously described (Oyama et al., 2017 Biofilms Microbiomes, Dec 1;3:33).
Briefly, human erythrocytes were washed 3 times with phosphate buffer saline (PBS) and concentrated using centrifugation at 800 g for 5 min. Human erythrocytes were then resuspended in PBS at a final concentration of 8 %. 100 µl of human erythrocytes were then added per well of sterile 96 well microplate already containing 15 µl of serially diluted antimicrobials (1:2 in distilled water). After 1 h at 37°C, the microplate was centrifuged at 800 g for 5 min. 100 µl were then carefully collected and transferred to a new 96 well microplate and OD was measured at 405 nm. Hemolysis caused by peptides was expressed as percentage of hemolysis; Triton-X100 at 0.1 % (v:v) was used as positive control and gave 100 % hemolysis. Hemolysis rate was determined as below: Hemolysis rate (%) = (A−A2)/(A1−A2) × 100% [formula] where A is the absorbance of indicator mixtures with different factors, A1 and A2 are the positive control, and the negative control, respectively.

[3] = BEAS-2B normal lung epithelial cells, normal lung epithelium, read-out: Cytotoxicity IC50 (µM) BEAS
[4] = HUVEC (human umbilical vein endothelial cells), normal endothelium, read-out: Cytotoxicity IC50 (µM) HUVEC
[5] = IMR-90 normal lung fibroblast cells, read-out: Cytotoxicity IC50 (µM) IMR90

## CC[C@@H](C)[C@@H](N)C(=O)N[C@@H](CC(C)C)C(=O)N[C@@H](CCCCN)C(=O)N[C@@H](C)C(=O)N[C@H](C(=O)N[C@@H](CCCCN)C(=O)N[C@@H](CCCCN)C(=O)N[C@@H](CC(C)C)C(=O)N[C@@H](CC(C)C)C(=O)N[C@H](CCCCN)C(N)=O)[C@@H](C)CC [i1k10*] (H-[dI]LKAIKKLL[dK]-NH2)
M. smegmatis
  MIC (µM) M. smegmatis: 12.5 µM (≈ 14.6 µg/mL)
S. flexneri
  MBC (µM) S. flexneri: 6.25 µM (≈ 7.29 µg/mL)
  MIC (µM) S. flexneri: 3.12 to 6.25 µM
E. coli
  MIC (µM) E. coli: 50 µM (≈ 58.3 µg/mL)
S. enterica
  MBC (µM) S. enterica: 12.5 µM (≈ 14.6 µg/mL)
  MIC (µM) S. enterica: 12.5 µM (≈ 14.6 µg/mL)
A.baumani
  MIC (µM) A.baumani: 100 µM (≈ 117 µg/mL)
P. aeruginosa FQR
  MBC (µM) P. aeruginosa FQR: 25 µM (≈ 29.2 µg/mL)
  MIC (µM) P. aeruginosa FQR: 3.12 to 6.25 µM
L. lactis
  MBC (µM) L. lactis: 1.56 µM (≈ 1.82 µg/mL)
  MIC (µM) L. lactis: 0.78 µM (≈ 0.91 µg/mL)
[1]; [3]
  CC50 at 48 h: 867 µM
[1]; [4]
  CC50 at 48 h: 814 µM
[1]; [5]
  CC50 at 48 h: 783 µM
H. pylori
  MBC (µM) H. pylori: 12.5 µM (≈ 14.6 µg/mL)
  MIC (µM) H. pylori: 12.5 µM (≈ 14.6 µg/mL)
C. rodentium
  MBC (µM) C. rodentium: 12.5 µM (≈ 14.6 µg/mL)
  MIC (µM) C. rodentium: 12.5 µM (≈ 14.6 µg/mL)
P. aeruginosa 01
  MBC (µM) P. aeruginosa 01: 12.5 µM (≈ 14.6 µg/mL)
  MIC (µM) P. aeruginosa 01: 3.125 µM (≈ 3.65 µg/mL)
P. aeruginosa
  MBC (µM) P. aeruginosa: 1.5 µM (≈ 1.75 µg/mL)
  MIC PA: 0.78 µM (≈ 0.91 µg/mL)
A. gandavensis
  MBC (µM) A. gandavensis: 0.78 µM (≈ 0.91 µg/mL)
  MIC (µM) A. gandavensis: 0.78 µM (≈ 0.91 µg/mL)
C. farmeri
  MBC (µM) C. farmeri: 3.12 µM (≈ 3.64 µg/mL)
  MIC (µM) C. farmeri: 3.12 µM (≈ 3.64 µg/mL)
V. alginolyticus
  MBC (µM) V. alginolyticus: 0.78 µM (≈ 0.91 µg/mL)
  MIC (µM) V. alginolyticus: 0.78 µM (≈ 0.91 µg/mL)
[2]
  MBC (µM) B. subtilis (Nisin-resistant): 3.12 µM (≈ 3.64 µg/mL)
  MIC (µM) B. subtilis (Nisin-resistant): 3.12 µM (≈ 3.64 µg/mL)
E. coli EHEC K88
  MBC (µM) E. coli EHEC K88: 6.25 µM (≈ 7.29 µg/mL)
  MIC (µM) E. coli EHEC K88: 6.25 to 12.5 µM

## ILKAIKKLLK-NH2 [I1K10*]
Human erythrocytes; highest concentration tested
  hemotoxicity: no toxicity towards red blood cells up to: > 10 mM

## LSAILGLLK-NH2 [Peptides L2K10]
B. subtilis
  MIC (µM) B. subtilis: 100 µM

## ILSAILGLL-NH2 [Peptides I1L9]
B. subtilis
  MIC (µM) B. subtilis: 100 µM
S. aureus
  MIC (µM) S. aureus: 100 µM

## Ac-IKAIKKLLKN-NH2 [Ac I1N10*]
E. coli
  MIC (µM) E. coli: 100 µM
A.baumani
  MIC (µM) A.baumani: >100 µM
P. aeruginosa
  MIC (µM) P. aeruginosa: 50 µM

## CC[C@H](C)[C@H](NC(=O)CN)C(=O)NCC(=O)N[C@@H](C)C(=O)N[C@H](C(=O)N[C@@H](CC(C)C)C(=O)N[C@@H](CCCCN)C(=O)N[C@H](C(=O)N[C@@H](CC(C)C)C(=O)N[C@H](C(=O)N[C@H](C(=O)NCC(=O)N[C@@H](CC(C)C)C(=O)N1CCC[C@H]1C(=O)N[C@@H](C)C(=O)N[C@@H](CC(C)C)C(=O)N[C@H](C(=O)N[C@@H](CO)C(=O)N[C@@H](Cc1c[nH]c2ccccc12)C(=O)N[C@H](C(=O)N[C@@H](CCCCN)C(=O)N[C@@H](CCCNC(=N)N)C(=O)N[C@@H](CCCCN)C(=O)N[C@@H](CCCNC(=N)N)C(=O)N[C@@H](CCC(N)=O)C(=O)N[C@@H](CCC(N)=O)C(N)=O)[C@@H](C)CC)[C@@H](C)CC)[C@@H](C)O)[C@@H](C)O)C(C)C)C(C)C [Melittine, Melittin, reference compound]
B. subtilis
  MIC against B. subtilis: 1.56 µM (≈ 4.44 µg/mL)

## LNKLLGLIASLI-NH2 [L12I1]
P. aeruginosa
  MIC (µM) P. aeruginosa: 50 µM

## ILKAIKKLLKN-NH2 [I1N11]
M. smegmatis
  MIC (µM) M. smegmatis: 25 µM
S. flexneri
  MBC (µM) S. flexneri: 50 µM
  MIC (µM) S. flexneri: 50 µM
S. enterica
  MBC (µM) S. enterica: 50 µM
  MIC (µM) S. enterica: 100 µM
P. aeruginosa FQR
  MBC (µM) P. aeruginosa FQR: 100 µM
  MIC (µM) P. aeruginosa FQR: 25 µM
L. lactis
  MBC (µM) L. lactis: 3.12 µM
  MIC (µM) L. lactis: 1.5 µM
[1]; [3]
  CC50 at 48 h: 821 µM
[1]; [4]
  CC50 at 48 h: 826 µM
[1]; [5]
  CC50 at 48 h: 892 µM
H. pylori
  MBC (µM) H. pylori: 100 µM
  MIC (µM) H. pylori: 100 µM
C. rodentium
  MBC (µM) C. rodentium: 50 µM
  MIC (µM) C. rodentium: 50 µM
P. aeruginosa 01
  MBC (µM) P. aeruginosa 01: 50 µM
  MIC (µM) P. aeruginosa 01: 25 µM
P. aeruginosa
  MBC (µM) P. aeruginosa: 6.25 µM
  MIC (µM) P. aeruginosa: 6.25 µM
  MIC PA: 6.25 µM
A. gandavensis
  MBC (µM) A. gandavensis: 3.12 µM
  MIC (µM) A. gandavensis: 3.12 µM
C. farmeri
  MBC (µM) C. farmeri: 12.5 µM
  MIC (µM) C. farmeri: 12.5 µM
V. alginolyticus
  MBC (µM) V. alginolyticus: 0.78 µM
  MIC (µM) V. alginolyticus: 0.78 µM
[2]
  MBC (µM) B. subtilis (Nisin-resistant): 12.5 µM
  MIC (µM) B. subtilis (Nisin-resistant): 12.5 µM
E. coli EHEC K88
  MBC (µM) E. coli EHEC K88: >100 µM
  MIC (µM) E. coli EHEC K88: 100 µM

## CC[C@@H](C)[C@@H](N)C(=O)N[C@H](CC(C)C)C(=O)N[C@H](CO)C(=O)N[C@H](C)C(=O)N[C@@H](C(=O)N[C@H](CC(C)C)C(=O)NCC(=O)N[C@H](CC(C)C)C(=O)N[C@H](CC(C)C)C(=O)N[C@H](CCCCN)C(=O)N[C@H](CC(N)=O)C(=O)N[C@H](CC(C)C)C(N)=O)[C@H](C)CC [(i1I12)enantio, ilsailgllknl] (H-[dI][dL][dS][dA][dI][dL]G[dL][dL][dK][dN][dL]-NH2)
E. coli
  MIC (µM) E. coli: 100 µM (≈ 127 µg/mL)
P. aeruginosa
  MIC (µM) P. aeruginosa: 100 µM (≈ 127 µg/mL)
B. subtilis
  MIC (µM) B. subtilis: 3.13 µM (≈ 3.96 µg/mL)
S. aureus
  MIC (µM) S. aureus: 6.25 µM (≈ 7.92 µg/mL)

## ILKAIKK-NH2 [I1K7*, ILKAIKK]
E. coli
  MIC (µM) E. coli: 100 µM
A.baumani
  MIC (µM) A.baumani: 100 µM
P. aeruginosa
  MIC (µM) P. aeruginosa: 100 µM
S. aureus; Table 4, n=4
  MIC (µM) S. aureus: / (« / » means MIC > 100µM)

## RLLGLWLW-NH2 [LTX-gallicune-2 (R1W8)]
Human erythrocytes; human erythrocytes, 50% lysis
  MHC50: 225 µM
Human erythrocytes; human erythrocytes, 100% lysis
  MHC100: 1000 µM
Human erythrocytes; human erythrocytes, Fig 3
  times less toxic (hemotoxic) than Gallicus-CP: 20 times

## KLLGLILI-NH2 [K1I8]
E. coli
  MIC (µM) E. coli: 50 µM
P. aeruginosa; Table 3, n=4
  MIC (µM) P. aeruginosa: / (« / » means MIC > 100µM)
S. aureus
  MIC (µM) S. aureus: 25 µM

## LKAIKKLL-NH2 [L2L9*]
E. coli
  MIC (µM) E. coli: 100 µM
P. aeruginosa
  MIC (µM) P. aeruginosa: 25 µM
